Assay [1] deals with acetylcholine-induced abdominal constriction in mice. Briefly: Mouse Abdominal Irritant Test (MAIT). It is filed as in vivo. To be noted: 300 mg/kg oral, male CD1 mice, % Inhibition=100×(Number of Nonresponders)/(Number of Animals in Group), read-out: Effect @ 300 mg/kg (Antinociceptive Effect in Mouse Abdominal Irritant Test). As to the method: Male CD1 mice (weighing from 18-24 g) are used to determine the antinociceptive effects associated with the compositions of the invention. The mice are all dosed orally with the compounds specified, dissolved in distilled water or suspended in 0.5% MethocelTM (hydroxypropyl methylcellulose) in water. The dosing volume is 10 mL/kg.
The procedure used in detecting and comparing the analgesic activity of different classes of analgesic drugs for which there is a good correlation with human efficacy is the prevention of acetylcholine-induced abdominal constriction in mice (H. Collier et al., Br. J. Pharmacol., 32, 295 (1968)).
Mice, intubated with various doses of the compound or vehicle such as distilled water, or distilled water 0.5% Methocel™ (hydroxypropyl methylcellulose) in water, are injected intraperitoneally with a challenge dose of acetylcholine bromide. The acetylcholine is completely dissolved in distilled water at a concentration of […] and injected at the rate of 0.20 mL/20 g. For scoring purposes, an “abdominal constriction” is defined as a contraction of the abdominal musculature accompanied by arching of the back and extension of the limbs. The mice are observed for 10 minutes for the presence or absence of the abdominal constriction response beginning immediately after receiving the acetylcholine dose, administered at a certain time after the oral administration of the test drug or vehicle. Each mouse is used only once.
The percent of inhibition of this response is calculated as follows: % Inhibition=100×(Number of Nonresponders)/(Number of Animals in Group)

For assay [2], the system named is rectal temperature of rats injected with yeast suspension. In words: Antipyretic evaluation in yeast-injected rats. Format: in vivo. As to the method: Groups of 10 male rats are weighed, color-coded, rectal temperatures taken (24 hours±15 minutes prior to dose administration) and recorded. Food is removed but water remains available ad libitum. Each rat is injected subcutaneously into the central dorsal region with 5 ml of a 15% yeast suspension. Twenty-three hours (±15 minutes) after yeast injection, body weights and rectal temperatures are taken and recorded. Twenty-four hours (±15 minutes) after yeast injection, the vehicle and test articles are administered orally. Temperatures are taken and recorded one hour (±5 minutes) following test article or vehicle administration. The mean rectal temperatures for the test article and vehicle control groups are calculated at 23 and 25 hours (±15 minutes) and subjected to an ANOVA followed by a Tukey HSD Multiple Comparison Test (p≦0.05)—Systat, version 9.0.

We go through 9 compounds from US9018241B2, “Hetero-substituted acetanilide derivatives as analgesic agents” (Janssen Pharmaceutica N.V., priority 2003, dated 2015).

As to `O=C(Nc1ccc(O)cc1)c1n[nH]c2ccccc12` [1H-Indazole-3-carboxylic acid (4-hydroxy-phenyl)-amide], the responders at 300 mg/kg in assay [1] came out at 20%.
Still for that read-out and setting: in the case of `O=C(Nc1ccc(O)cc1)c1ccc[nH]1` [1H-Pyrrole-2-carboxylic acid (4-hydroxy-phenyl)-amide] it was 86.7%; in that of `Cc1cc(C(=O)Nc2ccc(O)cc2)n[nH]1` [5-Methyl-1H-pyrazole-3-carboxylic acid (4-hydroxy-phenyl)-amide], 73.3%.
Still for that read-out and setting: in the case of `O=C(Nc1ccc(O)cc1)[C@H]1CCCN1` [(R)-Pyrrolidine-2-carboxylic acid (4-hydroxy-phenyl)-amide] it was 20%; in that of `O=C(Nc1ccc(O)cc1)[C@@H]1CCCN1` [(S)-Pyrrolidine-2-carboxylic acid (4-hydroxy-phenyl)-amide], 40%; in that of `O=C(CS)Nc1ccc(O)cc1` [N-(4-Hydroxy-phenyl)-2-mercapto-acetamide], 40%.
The same measure, in the same setting: in the case of `CS(=O)(=O)CC(=O)Nc1ccc(O)cc1` [N-(4-Hydroxy-phenyl)-2-methanesulfonyl-acetamide] it was 40%; in that of `CSCC(=O)Nc1ccc(O)cc1` [N-(4-Hydroxy-phenyl)-2-methylsulfanyl-acetamide], 45%.
For the compound `O=C(Nc1ccc(O)cc1)c1ccccn1` [Pyridine-2-carboxylic acid (4-hydroxy-phenyl)-amide], the responders at 300 mg/kg in assay [1] was 60%. The “decrease in body temperature relative to the vehicle-treated group” value in assay [2] (600 mg/kg oral, ANOVA, Tukey HSD) is “statistically significant (p≦1.05) decrease in body temperature”. Also, the “Antipyresis deg C. @ 600 mpk” value in assay [2] (600 mpk oral, one hour after administration, 24 h after yeast injection) is −2.17 deg C.
